The results in this text go back to patent US4302448A, “Secretin preparations with intensified and protracted action, process for their manufacture, their use as well as dihydroxybenzoyl-L-tyrosine” (Hoechst Aktiengesellschaft, priority 1979, dated 1981).

For this assay, the system named is Pancreatic juice secretion of the rat. Kind of assay: Pancreatic juice secretion of the rat after subcutaneous administration of secretin with depot bodies. It is filed as in vivo. The following applies: rat, subcutaneous, 5 CU/kg secretin + 10 mg depot body/animal; for Δ% vs. control (percentage by which the pancreatic secretion is above the basal secretion after 5 hours): control=100%, measure of depot effect; for Rel. Intensity of effect over 5 hours (total pancreatic juice secretion over 5 hours as compared with control): control (0.9% of NaCl)=1. On the procedure:
Secretin preparations for subcutaneous application which contained the depot bodies specified in the following Table were tested in animal experiments. In the experimental procedure chosen, 5 to 8 male rats weighing 300 to 500 g each are administered subcutaneously 5 CU/kg of secretin (CU means clinical unit) and 10 mg of the depot body to be tested each in aqueous solution or suspension.
The animals remain without food for 18 hours prior to the test, but they are given water ad libitum. Under urethane anaesthesia (5 ml/kg i.m. of 25% urethane) the abdomen is opened by median section after tracheotomy, and the pylorus is ligated. The ductus choledochus is tied off in its proximal part near the porta hepatis, and the bile is led into the duodenum via a polyethylene tube of a diameter of […]. A cannula or catheter is inserted into the distal part of the bile duct, into which the numerous pancreatic ducts open, immediately before it opens into the duodenum, and the volume of the secretion running off is measured in 60 minute intervals. Following a preliminary run of 60 minutes the preparations are administered.
L means the compound known from literature and characterized by the melting point, optionally UV, IR or NMR. A to C relate to the preparation according to Example 1, process A to C. These compounds were characterized by ultimate analysis. The third column indicates the percentage by which the pancreatic secretion is above the basal secretion after 5 hours (calculated on the control=100%). This value is a measure for the depot effect of the depot body tested. Column 4 indicates the intensification of the secretin effect, with the total pancreatic juice secretion having been given over 5 hours as compared with the control (0.9% of NaCl)=1.

For “2,8-Dihydroxy-3-naphthoyl-diethanolamine”, the “Δ% vs. control (percentage by which the pancreatic secretion is above the basal secretion after 5 hours)” value turned out to be 77% and the “Rel. Intensity of effect over 5 hours (total pancreatic juice secretion over 5 hours as compared with control)” value came to 9.1.

Take “3,5-Dihydroxyphenylcarbonyl-ethylphenyl-3,5-dimethyl phosphate”: the “Δ% vs. control (percentage by which the pancreatic secretion is above the basal secretion after 5 hours)” value was determined as 62% and the “Rel. Intensity of effect over 5 hours (total pancreatic juice secretion over 5 hours as compared with control)” value was found to be 3.4.

In the case of `O=C(c1ccc2ccccc2c1O)N(CCO)CCO` [1-Hydroxy-2-naphthoic acid-diethanolamide], the “Δ% vs. control (percentage by which the pancreatic secretion is above the basal secretion after 5 hours)” value is 79% and the “Rel. Intensity of effect over 5 hours (total pancreatic juice secretion over 5 hours as compared with control)” value is given as 8.1.

Take `O=C(NCCO)c1ccc2ccccc2c1O` [1-Hydroxy-2-naphthoic acid-ethanolamide]: the “Δ% vs. control (percentage by which the pancreatic secretion is above the basal secretion after 5 hours)” value is on record as 74% and the “Rel. Intensity of effect over 5 hours (total pancreatic juice secretion over 5 hours as compared with control)” value was found to be 8.0.

In the case of `O=C(c1ccc(O)cc1O)c1ccc(O)cc1O` [2,2'-4,4'-Tetrahydroxybenzophenone], the “Δ% vs. control (percentage by which the pancreatic secretion is above the basal secretion after 5 hours)” value is given as 58% and the “Rel. Intensity of effect over 5 hours (total pancreatic juice secretion over 5 hours as compared with control)” value turned out to be 4.8.

With `O=C(c1ccccc1)c1ccc(O)c(O)c1O` [2,3,4-Trihydroxy-benzophenone], the “Δ% vs. control (percentage by which the pancreatic secretion is above the basal secretion after 5 hours)” value came out at 109% and the “Rel. Intensity of effect over 5 hours (total pancreatic juice secretion over 5 hours as compared with control)” value is listed as 9.1.

As for `CC(=O)c1ccc(O)cc1O` [2,4-Dihydroxy-acetophenone], the “Δ% vs. control (percentage by which the pancreatic secretion is above the basal secretion after 5 hours)” value was 70% and the “Rel. Intensity of effect over 5 hours (total pancreatic juice secretion over 5 hours as compared with control)” value was found to be 6.1.

`O=C(c1ccccc1)c1ccc(O)cc1O` [2,4-Dihydroxy-benzophenone]: the “Δ% vs. control (percentage by which the pancreatic secretion is above the basal secretion after 5 hours)” value worked out at 163% and the “Rel. Intensity of effect over 5 hours (total pancreatic juice secretion over 5 hours as compared with control)” value came out at 9.1.

For `O=C(NCc1ccccc1)c1ccc(O)cc1O` [2,4-Dihydroxybenzoic acid-benzylamide], the “Δ% vs. control (percentage by which the pancreatic secretion is above the basal secretion after 5 hours)” value was determined as 64% and the “Rel. Intensity of effect over 5 hours (total pancreatic juice secretion over 5 hours as compared with control)” value worked out at 6.8.

Consider `O=C(O)c1ccc(O)cc1O` [2,4-Dihydroxybenzoic acid], for which the “Δ% vs. control (percentage by which the pancreatic secretion is above the basal secretion after 5 hours)” value was determined as 28% and the “Rel. Intensity of effect over 5 hours (total pancreatic juice secretion over 5 hours as compared with control)” value was 7.1.

In the case of `O=C(N[C@@H](Cc1ccc(O)cc1)C(=O)N(CCO)CCO)c1ccc(O)cc1O` [2,4-Dihydroxybenzoyl-L-tyrosine-diethanolamide], the “Δ% vs. control (percentage by which the pancreatic secretion is above the basal secretion after 5 hours)” value is 47% and the “Rel. Intensity of effect over 5 hours (total pancreatic juice secretion over 5 hours as compared with control)” value amounted to 8.7.

Turning to `COC(=O)[C@H](Cc1ccc(O)cc1)NC(=O)c1ccc(O)cc1O` [2,4-Dihydroxybenzoyl-L-tyrosine-methyl ester], the “Δ% vs. control (percentage by which the pancreatic secretion is above the basal secretion after 5 hours)” value is listed as 70% and the “Rel. Intensity of effect over 5 hours (total pancreatic juice secretion over 5 hours as compared with control)” value is 7.8.

As for `CCCCNC(=O)[C@H](Cc1ccc(O)cc1)NC(=O)c1ccc(O)cc1O` [2,4-Dihydroxybenzoyl-L-tyrosine-n-butylamide], the “Δ% vs. control (percentage by which the pancreatic secretion is above the basal secretion after 5 hours)” value was determined as 87% and the “Rel. Intensity of effect over 5 hours (total pancreatic juice secretion over 5 hours as compared with control)” value is given as 8.7.

For the compound `O=C(N[C@@H](Cc1ccc(O)cc1)C(=O)O)c1ccc(O)cc1O` [2,4-Dihydroxybenzoyl-L-tyrosine], the “Δ% vs. control (percentage by which the pancreatic secretion is above the basal secretion after 5 hours)” value came to 84%.

Consider `O=C(c1cc(Cl)ccc1O)N(CCO)CCO` [2-Hydroxy-5-chloro-benzoic acid-diethanolamide], for which the “Δ% vs. control (percentage by which the pancreatic secretion is above the basal secretion after 5 hours)” value was 77% and the “Rel. Intensity of effect over 5 hours (total pancreatic juice secretion over 5 hours as compared with control)” value came to 7.3.

Consider `NC(=O)c1ccccc1O` [2-Hydroxy-benzoic acid amide], for which the “Δ% vs. control (percentage by which the pancreatic secretion is above the basal secretion after 5 hours)” value is 51% and the “Rel. Intensity of effect over 5 hours (total pancreatic juice secretion over 5 hours as compared with control)” value is 8.0.

With `O=C(O)c1ccccc1O` [2-Hydroxy-benzoic acid], the “Δ% vs. control (percentage by which the pancreatic secretion is above the basal secretion after 5 hours)” value was 6% and the “Rel. Intensity of effect over 5 hours (total pancreatic juice secretion over 5 hours as compared with control)” value stood at 4.5.

`O=C(c1ccccc1)c1ccccc1O` [2-Hydroxy-benzophenone]: the “Δ% vs. control (percentage by which the pancreatic secretion is above the basal secretion after 5 hours)” value is given as 74% and the “Rel. Intensity of effect over 5 hours (total pancreatic juice secretion over 5 hours as compared with control)” value came out at 7.2.

Regarding `O=C(O)c1cc(O)nc2ccccc12` [2-Hydroxy-quinoline-4-carboxylic acid], the “Δ% vs. control (percentage by which the pancreatic secretion is above the basal secretion after 5 hours)” value is recorded as 5% and the “Rel. Intensity of effect over 5 hours (total pancreatic juice secretion over 5 hours as compared with control)” value worked out at 5.0.

As to `O=C(CO)c1ccccc1` [2-Hydroxyacetophenone], the “Δ% vs. control (percentage by which the pancreatic secretion is above the basal secretion after 5 hours)” value stood at 38% and the “Rel. Intensity of effect over 5 hours (total pancreatic juice secretion over 5 hours as compared with control)” value was 7.6.

On to `O=C(O)c1cc(O)c(O)c(O)c1` [3,4,5-Trihydroxybenzoic acid], for which the “Δ% vs. control (percentage by which the pancreatic secretion is above the basal secretion after 5 hours)” value was 28% and the “Rel. Intensity of effect over 5 hours (total pancreatic juice secretion over 5 hours as compared with control)” value is 5.0.

Turning to `NC(=O)c1cc(O)cc(O)c1` [3,5-Dihydroxybenzoic acid amide], the “Δ% vs. control (percentage by which the pancreatic secretion is above the basal secretion after 5 hours)” value is on record as 34% and the “Rel. Intensity of effect over 5 hours (total pancreatic juice secretion over 5 hours as compared with control)” value was found to be 6.2.

As for `O=C(Nc1cccc(O)c1)c1cc(O)cc(O)c1` [3,5-Dihydroxybenzoic acid-3-hydroxy-anilide], the “Δ% vs. control (percentage by which the pancreatic secretion is above the basal secretion after 5 hours)” value was determined as 49% and the “Rel. Intensity of effect over 5 hours (total pancreatic juice secretion over 5 hours as compared with control)” value was 6.2.

Regarding `O=C(O)c1cc(O)cc(O)c1` [3,5-Dihydroxybenzoic acid], the “Δ% vs. control (percentage by which the pancreatic secretion is above the basal secretion after 5 hours)” value was found to be 25% and the “Rel. Intensity of effect over 5 hours (total pancreatic juice secretion over 5 hours as compared with control)” value came to 6.6.

With `O=C(NC(Cc1ccc(O)cc1)C(=O)N(CCO)CCO)c1cc(O)cc(O)c1` [3,5-Dihydroxybenzoyl-L-tyrosine-diethanolamide], the “Δ% vs. control (percentage by which the pancreatic secretion is above the basal secretion after 5 hours)” value was found to be 76% and the “Rel. Intensity of effect over 5 hours (total pancreatic juice secretion over 5 hours as compared with control)” value is given as 7.6.

For `NS(=O)(=O)c1cccc(NC(=O)c2ccccc2O)c1` [3-(2-Hydroxybenzoylamino)-benzene-sulfonamide], the “Δ% vs. control (percentage by which the pancreatic secretion is above the basal secretion after 5 hours)” value was found to be 81% and the “Rel. Intensity of effect over 5 hours (total pancreatic juice secretion over 5 hours as compared with control)” value was found to be 8.1.

Regarding `CC(=O)c1cccc(O)c1` [3-Hydroxy-acetophene], the “Δ% vs. control (percentage by which the pancreatic secretion is above the basal secretion after 5 hours)” value worked out at 54% and the “Rel. Intensity of effect over 5 hours (total pancreatic juice secretion over 5 hours as compared with control)” value is recorded as 9.0.

`O=C(c1ccccc1)c1cccc(O)c1` [3-Hydroxy-benzophenone]: the “Δ% vs. control (percentage by which the pancreatic secretion is above the basal secretion after 5 hours)” value turned out to be 79% and the “Rel. Intensity of effect over 5 hours (total pancreatic juice secretion over 5 hours as compared with control)” value was determined as 8.0.

For the compound `O=C(O)c1cccc(O)c1` [3-Hydroxybenzoic acid], the “Δ% vs. control (percentage by which the pancreatic secretion is above the basal secretion after 5 hours)” value is on record as 47% and the “Rel. Intensity of effect over 5 hours (total pancreatic juice secretion over 5 hours as compared with control)” value was determined as 4.0.
